Measurements taken from US6514486B1, “Composition for topical application comprising at least one iminophenol compound” (L'Oreal, priority 1997, dated 2003).

Tested on: coculture of keratinocytes and of melanocytes
Experiment: depigmenting activity test: inhibition of melanogenesis on a coculture of keratinocytes and of melanocytes
Type: cell-based
Details: for Category (maximum depigmenting activity): inhibition of melanogenesis with respect to the control; for IC50: coculture of keratinocytes and melanocytes, read-out: IC50 (concentration at which 50% inhibition of melanogenesis is observed)
Experimental: This test corresponds to that described in Patent FR 2,734,825, filed by the Applicant Company, and in the article by R. Schmidt, P. Krien and M. Régnier, Anal. Biochem., 235(2), 113-18 (1996). This test is thus carried out on a coculture of keratinocytes and of melanocytes.
The IC50 value, which corresponds to the micromolar concentration (μM) at which 50% inhibition of melanogenesis is observed, is determined for each compound tested.
Furthermore, a category is given to each of these compounds for their maximum depigmenting activity:
category 1: 10 to 30% inhibition of melanogenesis with respect to the control (same experiment without compound to be tested);
category 2: 30 to 60% inhibition of melanogenesis with respect to the control (same experiment without compound to be tested);
category 3: 60 to 100% inhibition of melanogenesis with respect to the control (same experiment without compound to be tested).

| IC50 | SMILES | Category (maximum depigmenting activity) (at 50 μM) | Category (maximum depigmenting activity) (at 500 μM) |
| --- | --- | --- | --- |
| 200 µM | CN(C)C=Nc1ccc(O)cc1 [N′-(4-hydroxyphenyl)-N,N-dimethylformamidine] | 2 at 50 μM (category 2: 30 to 60% inhibition of melanogenesis with respect to the control) |  |
| 500 µM | O=c1cc(CO)occ1O [Kojic acid] |  | 2 at 500 μM (category 2: 30 to 60% inhibition of melanogenesis with respect to the control) |
